ChEMBL document CHEMBL3751666, “Efficiently functionalized oxacalix[4]arenes: Synthesis, characterization and exploration of their biological profile as novel HDAC inhibitors” (2016)
Values after ≈ are worked out from the molar mass of the structure shown. Where a name gives a salt, the structure may show the parent alone.

Experiments:
Assay type in all cases: functional
[1] = system: Escherichia coli; test: Antibacterial activity against Escherichia coli by broth micro-dilution method
[2] = system: Staphylococcus aureus; test: Antibacterial activity against Staphylococcus aureus by broth micro-dilution method
[3] = system: Streptococcus pyogenes; test: Antibacterial activity against Streptococcus pyogenes by broth micro-dilution method
[4] = system: Pseudomonas aeruginosa; test: Antibacterial activity against Pseudomonas aeruginosa by broth micro-dilution method
[5] = system: Candida albicans; test: Antifungal activity against Candida albicans by broth micro-dilution method
[6] = system: Aspergillus niger; test: Antifungal activity against Aspergillus niger by broth micro-dilution method
[7] = system: Aspergillus clavatus; test: Antifungal activity against Aspergillus clavatus by broth micro-dilution method
[8] = system: HeLa; test: Cytotoxicity against human HeLa cells; conditions: for CC50: read-out: LC50 (the source's name)

CC1(C)S[C@@H]2[C@H](NC(=O)[C@H](N)c3ccccc3)C(=O)N2[C@H]1C(=O)O [AMPICILLIN]
MIC [1]: 1 mg/L (≈ 2.86 µM)
MIC [2]: 2 mg/L (≈ 5.72 µM)
MIC [3]: 10 mg/L (≈ 28.6 µM)

GENTAMICIN
MIC [1]: 0.005 mg/L
MIC [4]: 1 mg/L
MIC [2]: 0.025 mg/L
MIC [3]: 0.05 mg/L

O=C(COc1cc2cc(c1)Oc1cc(c([N+](=O)[O-])cc1[N+](=O)[O-])Oc1cc(OCC(=O)N(c3ccccc3)c3ccccc3)cc(c1)Oc1cc(c([N+](=O)[O-])cc1[N+](=O)[O-])O2)N(c1ccccc1)c1ccccc1
MIC [1]: 1.75 mg/L (≈ 1.75 µM)
MIC [4]: 1 mg/L (≈ 1 µM)
MIC [2]: 1.75 mg/L (≈ 1.75 µM)
MIC [3]: 3.12 mg/L (≈ 3.13 µM)
MIC [5]: 12.5 mg/L (≈ 12.5 µM)
MIC [6]: 25 mg/L (≈ 25 µM)
MIC [7]: 12.5 mg/L (≈ 12.5 µM)
GI50 [8]: 38.3 µM
TGI [8]: 82.2 µM
CC50 [8]: > 100 µM

NYSTATIN
MIC [5]: 10 mg/L
MIC [6]: 10 mg/L
MIC [7]: 10 mg/L

O=C(COc1cc2cc(c1)Oc1cc(c([N+](=O)[O-])cc1[N+](=O)[O-])Oc1cc(OCC(=O)Nc3cccc4c3C(=O)c3ccccc3C4=O)cc(c1)Oc1cc(c([N+](=O)[O-])cc1[N+](=O)[O-])O2)Nc1cccc2c1C(=O)c1ccccc1C2=O
MIC [1]: 25 mg/L (≈ 22.6 µM)
MIC [4]: 1.75 mg/L (≈ 1.58 µM)
MIC [2]: 50 mg/L (≈ 45.2 µM)
MIC [3]: 1 mg/L (≈ 0.903 µM)
MIC [5]: 50 mg/L (≈ 45.2 µM)
MIC [6]: 50 mg/L (≈ 45.2 µM)
MIC [7]: 25 mg/L (≈ 22.6 µM)
GI50 [8]: 53.4 µM
TGI [8]: > 100 µM
CC50 [8]: > 100 µM

COc1cccc2c1C(=O)c1c(O)c3c(c(O)c1C2=O)C[C@@](O)(C(=O)CO)C[C@@H]3O[C@H]1C[C@H](N)[C@H](O)[C@H](C)O1 [DOXORUBICIN HYDROCHLORIDE]
GI50 [8]: < 0.1 µM
TGI [8]: < 0.1 µM
CC50 [8]: 95.5 µM

COC1=CC(=O)C[C@@H](C)[C@]12Oc1c(Cl)c(OC)cc(OC)c1C2=O [GRISEOFULVIN]
MIC [5]: 50 mg/L (≈ 142 µM)
MIC [6]: 10 mg/L (≈ 28.3 µM)
MIC [7]: 10 mg/L (≈ 28.3 µM)

O=C(COc1cc2cc(c1)Oc1cc(c([N+](=O)[O-])cc1[N+](=O)[O-])Oc1cc(OCC(=O)Nc3cccc4cccnc34)cc(c1)Oc1cc(c([N+](=O)[O-])cc1[N+](=O)[O-])O2)Nc1cccc2cccnc12
MIC [1]: 50 mg/L (≈ 52.7 µM)
MIC [4]: 3.12 mg/L (≈ 3.29 µM)
MIC [2]: 50 mg/L (≈ 52.7 µM)
MIC [3]: 50 mg/L (≈ 52.7 µM)
MIC [5]: 50 mg/L (≈ 52.7 µM)
MIC [6]: 50 mg/L (≈ 52.7 µM)
MIC [7]: 50 mg/L (≈ 52.7 µM)
GI50 [8]: 28.8 µM
TGI [8]: 59.2 µM
CC50 [8]: > 100 µM

CCn1cc(C(=O)O)c(=O)c2cc(F)c(N3CCNCC3)cc21 [NORFLOXACIN]
MIC [1]: 1 mg/L (≈ 3.13 µM)
MIC [4]: 1 mg/L (≈ 3.13 µM)
MIC [2]: 1 mg/L (≈ 3.13 µM)
MIC [3]: 1 mg/L (≈ 3.13 µM)

O=C(COc1cc2cc(c1)Oc1cc(c([N+](=O)[O-])cc1[N+](=O)[O-])Oc1cc(OCC(=O)Nc3nc4ccc([N+](=O)[O-])cc4s3)cc(c1)Oc1cc(c([N+](=O)[O-])cc1[N+](=O)[O-])O2)Nc1nc2ccc([N+](=O)[O-])cc2s1
MIC [1]: 12.5 mg/L (≈ 11.9 µM)
MIC [4]: 50 mg/L (≈ 47.6 µM)
MIC [2]: 1.75 mg/L (≈ 1.67 µM)
MIC [3]: 1.75 mg/L (≈ 1.67 µM)
MIC [5]: 50 mg/L (≈ 47.6 µM)
MIC [6]: 42.9 mg/L (≈ 40.8 µM)
MIC [7]: 50 mg/L (≈ 47.6 µM)
GI50 [8]: 41.3 µM
TGI [8]: 93.2 µM
CC50 [8]: > 100 µM

Cc1cccc2sc(NC(=O)COc3cc4cc(c3)Oc3cc(c([N+](=O)[O-])cc3[N+](=O)[O-])Oc3cc(OCC(=O)Nc5nc6c(C)cccc6s5)cc(c3)Oc3cc(c([N+](=O)[O-])cc3[N+](=O)[O-])O4)nc12
MIC [1]: 25 mg/L (≈ 25.3 µM)
MIC [4]: 12.5 mg/L (≈ 12.6 µM)
MIC [2]: 3.12 mg/L (≈ 3.16 µM)
MIC [3]: 6.25 mg/L (≈ 6.32 µM)
MIC [5]: 25 mg/L (≈ 25.3 µM)
MIC [6]: 25 mg/L (≈ 25.3 µM)
MIC [7]: 12.5 mg/L (≈ 12.6 µM)
GI50 [8]: 7.7 µM
TGI [8]: 13.4 µM
CC50 [8]: > 100 µM

O=[N+]([O-])c1cc([N+](=O)[O-])c2cc1Oc1cc(cc(OS(=O)(=O)c3cccc4cccnc34)c1)Oc1cc(c([N+](=O)[O-])cc1[N+](=O)[O-])Oc1cc(cc(OS(=O)(=O)c3cccc4cccnc34)c1)O2
MIC [1]: 6.25 mg/L (≈ 6.49 µM)
MIC [4]: 12.5 mg/L (≈ 13 µM)
MIC [2]: 3.12 mg/L (≈ 3.25 µM)
MIC [3]: 12.5 mg/L (≈ 13 µM)
MIC [5]: 25 mg/L (≈ 26 µM)
MIC [6]: 50 mg/L (≈ 51.9 µM)
MIC [7]: 25 mg/L (≈ 26 µM)
GI50 [8]: 12.8 µM
TGI [8]: 25.6 µM
CC50 [8]: > 100 µM

O=C(COc1cc2cc(c1)Oc1cc(c([N+](=O)[O-])cc1[N+](=O)[O-])Oc1cc(OCC(=O)Nc3nc4ccc(Cl)cc4s3)cc(c1)Oc1cc(c([N+](=O)[O-])cc1[N+](=O)[O-])O2)Nc1nc2ccc(Cl)cc2s1
MIC [1]: 6.25 mg/L (≈ 6.07 µM)
MIC [4]: 6.25 mg/L (≈ 6.07 µM)
MIC [2]: 12.5 mg/L (≈ 12.1 µM)
MIC [3]: 3.12 mg/L (≈ 3.03 µM)
MIC [5]: 50 mg/L (≈ 48.6 µM)
MIC [6]: 50 mg/L (≈ 48.6 µM)
MIC [7]: 50 mg/L (≈ 48.6 µM)
GI50 [8]: 13.7 µM
TGI [8]: 28.6 µM
CC50 [8]: > 100 µM

O=C(COc1cc2cc(c1)Oc1cc(c([N+](=O)[O-])cc1[N+](=O)[O-])Oc1cc(OCC(=O)Nc3nc4ccccc4s3)cc(c1)Oc1cc(c([N+](=O)[O-])cc1[N+](=O)[O-])O2)Nc1nc2ccccc2s1
MIC [1]: 6.25 mg/L (≈ 6.5 µM)
MIC [4]: 6.25 mg/L (≈ 6.5 µM)
MIC [2]: 1 mg/L (≈ 1.04 µM)
MIC [3]: 50 mg/L (≈ 52 µM)
MIC [5]: 50 mg/L (≈ 52 µM)
MIC [6]: 50 mg/L (≈ 52 µM)
MIC [7]: 12.5 mg/L (≈ 13 µM)
GI50 [8]: 10.3 µM
TGI [8]: 19.4 µM
CC50 [8]: > 100 µM

O=C(Oc1cc2cc(c1)Oc1cc(c([N+](=O)[O-])cc1[N+](=O)[O-])Oc1cc(OC(=O)c3cccc4ccccc34)cc(c1)Oc1cc(c([N+](=O)[O-])cc1[N+](=O)[O-])O2)c1cccc2ccccc12
MIC [1]: 1.75 mg/L (≈ 1.97 µM)
MIC [4]: 1.75 mg/L (≈ 1.97 µM)
MIC [2]: 50 mg/L (≈ 56.3 µM)
MIC [3]: 12.5 mg/L (≈ 14.1 µM)
MIC [5]: 25 mg/L (≈ 28.1 µM)
MIC [6]: 12.5 mg/L (≈ 14.1 µM)
MIC [7]: 12.5 mg/L (≈ 14.1 µM)
GI50 [8]: 16.3 µM
TGI [8]: 32.6 µM
CC50 [8]: > 100 µM

COc1ccc2nc(NC(=O)COc3cc4cc(c3)Oc3cc(c([N+](=O)[O-])cc3[N+](=O)[O-])Oc3cc(OCC(=O)Nc5nc6ccc(OC)cc6s5)cc(c3)Oc3cc(c([N+](=O)[O-])cc3[N+](=O)[O-])O4)sc2c1
MIC [1]: 50 mg/L (≈ 49 µM)
MIC [4]: 25 mg/L (≈ 24.5 µM)
MIC [2]: 12.5 mg/L (≈ 12.2 µM)
MIC [3]: 3.12 mg/L (≈ 3.06 µM)
MIC [5]: 50 mg/L (≈ 49 µM)
MIC [6]: 25 mg/L (≈ 24.5 µM)
MIC [7]: 12.5 mg/L (≈ 12.2 µM)
GI50 [8]: 20.1 µM
TGI [8]: 39.4 µM
CC50 [8]: > 100 µM

O=[N+]([O-])c1cc([N+](=O)[O-])c2cc1Oc1cc(cc(OS(=O)(=O)c3cccc4ccccc34)c1)Oc1cc(c([N+](=O)[O-])cc1[N+](=O)[O-])Oc1cc(cc(OS(=O)(=O)c3cccc4ccccc34)c1)O2
MIC [1]: 3.12 mg/L (≈ 3.25 µM)
MIC [4]: 3.12 mg/L (≈ 3.25 µM)
MIC [2]: 6.25 mg/L (≈ 6.5 µM)
MIC [3]: 12.5 mg/L (≈ 13 µM)
MIC [5]: 12.5 mg/L (≈ 13 µM)
MIC [6]: 50 mg/L (≈ 52 µM)
MIC [7]: 50 mg/L (≈ 52 µM)
GI50 [8]: 31.3 µM
TGI [8]: 61.3 µM
CC50 [8]: > 100 µM

O=C(COc1cc2cc(c1)Oc1cc(c([N+](=O)[O-])cc1[N+](=O)[O-])Oc1cc(OCC(=O)Nc3nc4ccc(Br)cc4s3)cc(c1)Oc1cc(c([N+](=O)[O-])cc1[N+](=O)[O-])O2)Nc1nc2ccc(Br)cc2s1
MIC [1]: 1 mg/L (≈ 0.894 µM)
MIC [4]: 1.75 mg/L (≈ 1.56 µM)
MIC [2]: 1 mg/L (≈ 0.894 µM)
MIC [3]: 25 mg/L (≈ 22.3 µM)
MIC [5]: 25 mg/L (≈ 22.3 µM)
MIC [6]: 25 mg/L (≈ 22.3 µM)
MIC [7]: 25 mg/L (≈ 22.3 µM)
GI50 [8]: 2.1 µM
TGI [8]: 4.6 µM
CC50 [8]: > 100 µM
